From US7282489B2, “Compositions and methods for performing reverse gene therapy” (The Children's Hospital of Philadelphia, priority 2000, dated 2007)

Columns and labels:
[1] = system: re-entrant atrial flutter; assay: Y-atriotomy model for re-entrant atrial flutter, burst atrial pacing; format: in vivo, dog; conditions: dogs systemically administered a dose of ibutilide equivalent to that provided by the polymer
[2] = target: T1, Q9E-hMiRP1 channels (Homo sapiens, UniProt Q12809+Q9Y6J6, Q9E); conditions: patch clamp studies, Abbott et al, 1999; cited from earlier work
T1 construct: expressed in transfected cells; host or cells: HEK293 stably expressing HERG, stably co-transfected with pIRES2-EGFP-Q9E-hMiRP1-FLAG

[3] = target: T1, Q9E-hMiRP1 channels; assay: Whole cell voltage clamp, HEK293 cells stably expressing HERG and Q9E-hMiRP1; format: cell-based
Description: (§1) Electrophysiology Methods: HEK293 cells that stably express HERG, but not hMiRP1 (Zhou, et al., 1999) were also stably co-transfected with either hMiRP1 or Q9E-hMiRP1 and subsequently were analyzed for channel function by single cell patch clamping using voltage clamp conditions. The data were analyzed at a sampling rate of 4 kHz and filtered at 1 kHz using Pclamp software version 6.0 (Axon Instruments, Foster City, Calif.). Leak correction was not performed, and therefore unaltered data are shown. All experiments were performed at 25° C. Protocols for steady-state activation and isochronal peak currents, and clarithromycin incubations were performed as described by Abbott et al., 1999. Initial studies were performed in buffer containing 95 mM KCl, 5 mM NaCl, 1 mM MgCl2, 0.3 mM CaCl2, and 10 mM HEPES (pH 7.6). For whole cell recordings, pipettes contained 100 mM KCl, 1 mM MgCl2, 10 mM HEPES, and 2 mM EGTA (pH 7.5). A 50 mM Clarithromycin (American Bioanalytical, Natick, Mass.) stock in DMSO was diluted in bath solution.

[4] = target: T2, Q9E-hMiRP1 channels (Homo sapiens, UniProt Q12809); assay: as above; format: cell-based; conditions: HEK293 cells overexpressing Q9E-hMiRP1, activation at +20 mV; read-out: Dose leading to half blockade of peak outward currents
T2 construct: expressed in transfected cells; host or cells: HEK293 stably expressing HERG, stably co-transfected with pIRES2-EGFP-Q9E-hMiRP1-FLAG
Description: as §1

[5] = target: T3, channels formed with wild-type hMiRP1 (Homo sapiens, UniProt Q12809); assay: Whole cell voltage clamp, HEK293 cells stably expressing HERG and wild type hMiRP1; format: cell-based; conditions: wild-type hMiRP1, activation at +20 mV, read-out: Dose causing half block of the peak outward currents
T3 construct: expressed in transfected cells; host or cells: HEK293 stably expressing HERG, stably co-transfected with pIRES2-EGFP-hMiRP1-FLAG
Description: as §1

T1 sequence (Q12809 whole entry): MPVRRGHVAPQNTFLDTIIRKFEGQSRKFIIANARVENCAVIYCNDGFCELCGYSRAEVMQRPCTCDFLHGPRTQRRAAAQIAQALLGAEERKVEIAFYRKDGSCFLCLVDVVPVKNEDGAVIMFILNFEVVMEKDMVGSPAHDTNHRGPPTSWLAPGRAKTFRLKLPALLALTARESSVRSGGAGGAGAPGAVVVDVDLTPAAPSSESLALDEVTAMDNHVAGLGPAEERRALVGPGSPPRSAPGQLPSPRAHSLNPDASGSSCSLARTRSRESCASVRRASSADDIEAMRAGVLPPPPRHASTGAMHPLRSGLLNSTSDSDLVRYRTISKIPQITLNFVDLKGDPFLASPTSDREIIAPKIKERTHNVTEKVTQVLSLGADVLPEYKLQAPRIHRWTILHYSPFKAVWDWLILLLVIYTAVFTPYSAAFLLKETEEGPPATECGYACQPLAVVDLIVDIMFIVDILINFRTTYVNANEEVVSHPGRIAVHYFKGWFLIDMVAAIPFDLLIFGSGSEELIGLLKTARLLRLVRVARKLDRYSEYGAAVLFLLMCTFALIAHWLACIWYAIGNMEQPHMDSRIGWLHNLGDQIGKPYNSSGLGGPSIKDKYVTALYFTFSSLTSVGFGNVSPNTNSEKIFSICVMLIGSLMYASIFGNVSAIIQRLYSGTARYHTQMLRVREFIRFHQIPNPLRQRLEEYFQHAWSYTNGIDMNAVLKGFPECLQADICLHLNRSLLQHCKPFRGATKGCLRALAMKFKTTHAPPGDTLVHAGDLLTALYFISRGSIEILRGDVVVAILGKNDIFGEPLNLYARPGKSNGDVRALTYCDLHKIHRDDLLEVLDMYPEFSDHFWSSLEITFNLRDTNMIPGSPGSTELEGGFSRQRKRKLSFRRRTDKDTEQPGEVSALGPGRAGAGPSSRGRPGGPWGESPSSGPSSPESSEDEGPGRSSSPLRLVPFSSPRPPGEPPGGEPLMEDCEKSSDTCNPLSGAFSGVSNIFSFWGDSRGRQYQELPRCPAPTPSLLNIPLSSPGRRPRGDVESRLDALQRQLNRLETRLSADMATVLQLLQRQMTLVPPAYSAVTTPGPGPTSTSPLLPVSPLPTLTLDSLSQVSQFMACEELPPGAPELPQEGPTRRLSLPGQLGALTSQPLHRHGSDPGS
T1 sequence (Q9Y6J6 whole entry Q9E): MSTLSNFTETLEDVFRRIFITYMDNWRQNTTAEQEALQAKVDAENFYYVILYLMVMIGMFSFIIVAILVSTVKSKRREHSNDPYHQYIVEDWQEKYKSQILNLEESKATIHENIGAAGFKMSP
T3 sequence (Q12809 whole entry): as the sequence (Q12809 whole entry) above
T3 sequence (Q9Y6J6 whole entry, further chain): as the sequence (Q9Y6J6 whole entry Q9E) above, with E9Q counted along it
T2 sequence (Q12809 whole entry): as the sequence (Q12809 whole entry) above
T2 sequence (Q9Y6J6 whole entry Q9E, further chain): as the sequence (Q9Y6J6 whole entry Q9E) above

Compound | Inhibition of inducibility of atrial flutter [1] | Sensitivity of Q9E-hMiRP1 channels to clarithromycin induced diminution of potassium currents relative to wild type [2] [fold] | Effect on I/I max with increased voltages ([3]; 1.0 mM clarithromycin, Q9E-hMiRP1 stable cells, groups of 4 cells) | Clarithromycin effect in Q9E-hMiRP1 cells relative to wild type hMiRP1 cells ([3]; HEK293 cells) | Effect on peak outward currents ([3]; HEK293 cells over-expressing Q9E-hMiRP1, whole cell voltage clamp) | IC50 [4] [µM] | IC50 [5] [µM]
CCCCCCCN(CC)CCCC(O)c1ccc(NS(C)(=O)=O)cc1 (stereo not shown) [ibutilide, Ibutilide] | No significant inhibition |  |  |  |  |  | 
CC[C@H]1OC(=O)[C@H](C)[C@@H](O[C@H]2C[C@@](C)(OC)[C@@H](O)[C@H](C)O2)[C@H](C)[C@@H](O[C@@H]2O[C@H](C)C[C@H](N(C)C)[C@H]2O)[C@](C)(OC)C[C@@H](C)C(=O)[C@H](C)[C@@H](O)[C@]1(C)O [clarithromycin, Clarithromycin] |  | 3 | blocked increases in I/I max with increased voltages | many-fold greater | reduced peak outward currents | < 1000 | ~2000
